Test results from the NIST ThermoML archive (doi:10.1021/je900285w).

Legend:
[1] = molar heat capacity at constant pressure; settings: 101.33 kPa, Crystal
[2] = Molar enthalpy of transition or fusion; settings: Crystal; DSC
[3] = Crystal; DTA

OC[C@@H](O)[C@@H](O)[C@H](O)[C@H](O)CO [D-mannitol]
[1]
Settings | molar heat capacity at constant pressure [J/K/mol]
80 K | 70.46
80.42 K | 71.86
84.12 K | 75.82
85 K | 76.73
87.06 K | 79
90 K | 82.37
90.04 K | 82.17
93.09 K | 85.24
95 K | 87.51
96.04 K | 88
99.05 K | 90.89
100 K | 92.23
102.11 K | 93.72
105 K | 96.64
105.11 K | 96.44
108.05 K | 98.92
110 K | 100.8
111.06 K | 101.4
114.14 K | 104
115 K | 104.8
117.16 K | 106.5
120 K | 108.7
120.11 K | 109
123.13 K | 111.5
125 K | 112.5
126.22 K | 113.8
129.26 K | 116.1
130 K | 116.2
132.27 K | 118.9
135 K | 120
135.24 K | 120.9
138.18 K | 123
140 K | 123.8
141.2 K | 125.4
144.28 K | 127.8
145 K | 127.7
147.31 K | 129.9
150 K | 131.6
150.31 K | 132.2
153.28 K | 134.4
155 K | 135.6
156.23 K | 136.7
159.25 K | 138.8
160 K | 139.7
162.37 K | 141.7
165 K | 143.9
165.49 K | 143.2
168.58 K | 146.4
170 K | 148.2
171.61 K | 149.2
174.59 K | 150.8
175 K | 152.5
177.6 K | 152.9
180 K | 156.9
180.59 K | 156.6
183.61 K | 159.2
185 K | 161.4
186.66 K | 162.1
189.7 K | 165
190 K | 166
192.75 K | 168.2
195 K | 170.6
195.81 K | 170.5
198.93 K | 173.9
200 K | 175.2
202.13 K | 176.6
205 K | 179.9
205.3 K | 180.9
208.4 K | 184.3
210 K | 184.6
211.46 K | 187.3
214.49 K | 189.7
215 K | 189.3
217.58 K | 192.1
220 K | 193.9
220.74 K | 195.4
223.88 K | 198.8
225 K | 198.6
226.99 K | 202.7
230 K | 203.2
230.03 K | 204.2
233.09 K | 207.6
235 K | 207.8
236.15 K | 210.5
239.22 K | 213.4
242.24 K | 215.7
245.33 K | 217.7
248.42 K | 220
251.42 K | 221.4
254.48 K | 223.2
257.61 K | 226.2
260.73 K | 228
263.83 K | 230.7
266.98 K | 233.6
270.15 K | 236.1
273.22 K | 239.5
276.28 K | 242.1
279.35 K | 245.4
282.41 K | 248.6
285.44 K | 251.6
288.45 K | 253.1
291.43 K | 256
294.39 K | 259
297.49 K | 260.6
300.61 K | 262.6
303.63 K | 264.9
306.66 K | 266.7
309.69 K | 268.4
312.78 K | 270.6
315.92 K | 272.9
319.06 K | 275.3
322.19 K | 277.9
325.3 K | 280.3
328.4 K | 282.6
331.49 K | 284.8
334.56 K | 286.1
337.63 K | 289
340.68 K | 291.4
343.78 K | 293.3
346.92 K | 295.5
350.05 K | 297.6
353.16 K | 299.6
356.26 K | 301.3
359.31 K | 303.7
362.51 K | 305.8
365.68 K | 308.4
368.86 K | 310.2
372.04 K | 311.9
375.21 K | 314
378.35 K | 316.7
381.44 K | 319
384.52 K | 320.9
387.64 K | 322.7

Settings | Molar enthalpy of transition or fusion [kcal/mol] | Normal melting temperature [°C]
[2] | 13.1 | –
[3] | – | 164.10
